According to patent US20020137929A1, “1 - (3-heterocyclylphenyl) isothiourea, -isourea, -guanidine and -amidine herbicidal agents” (Intellectual Property Department, BASF Aktiengesellschaft, priority 1998, published 2002):

Legend:
[1] = test system: CASOB (Sicklepod); assay: Postemergence herbicidal evaluation; format: in vivo, Cassia obtusifolia
Procedure: (§1) In the tests, seedling plants are grown in jiffy flats for about two weeks. The test compounds are dispersed in 50/50 acetone/water mixtures containing 0.5% TWEEN®20, a polyoxyethylene sorbitan monolaurate surfactant of Atlas Chemical Industries, in sufficient quantities to provide the equivalent of about 0.0156 kg to 0.500 kg per hectare of active compound when applied to the plants through a spray nozzle operating at 40 psi for a predetermined time. After spraying, the plants are placed on greenhouse benches and are cared for in accordance with conventional greenhouse procedures. From four to five weeks after treatment, the seedling plants are examined and rated according to the rating system set forth below. Where more than one test is involved for a given compound, the data are averaged.
(§2) Plant species employed in these evaluations are reported by header abbreviation, common name and scientific name.
(§3) Results of herbicide evaluation are expressed on a rating scale (0-9). The scale is based upon a visual observation of plant stand, vigor, malformation, size, chlorosis and overall plant appearance as compared with a control.

[2] = test system: SETVI (Foxtail, Green); assay: Postemergence herbicidal evaluation; format: in vivo, Setaria viridis
Procedure: as §1, §2, §3

[3] = test system: CHEAL (Lambsquarters, Common); assay: Postemergence herbicidal evaluation; format: in vivo, Chenopodium album
Procedure: as §1, §2, §3

[4] = test system: ORYSAT (Rice, Tebonnet); assay: Postemergence herbicidal evaluation; format: in vivo, Oryza sativa, (L.) Tebonnet
Procedure: as §1, §2, §3

[5] = test system: MOOVA (Monochoria); assay: Postemergence weed control under flooded paddy conditions; format: in vivo, Monochoria vaginalis; conditions: postemergence weeds, 3-4 weeks after treatment
Source text: as §3
(§4) Plastic containers containing weeds which are 3 to 5 cm tall and rice seedlings at the 1.5 to 2.5 leaf stage are flooded with water. The water is maintained at 1.5 to 3 cm above the soil surface for the duration of the experiment. Test compounds are applied as aqueous/ acetone mixtures 50/50 v/v directly into the flood water to provide the equivalent of about 0.0313 to 0.500 kg/ha of active ingredient. The treated containers are placed on greenhouse benches and cared for in accordance with conventional greenhouse procedures. Three to four weeks after treatment, the test is terminated and each container is examined and herbicidal effect rated according to the rating system provided in Example 37. The compounds evaluated are reported by compound number given in Example 37.

[6] = test system: GALAP (Galium); assay: Postemergence herbicidal evaluation; format: in vivo, Galium aparine
Procedure: as §1, §2, §3

[7] = test system: TRZAWR (Wheat, Winter, cv Riband); assay: Postemergence herbicidal evaluation; format: in vivo, Triticum aestivum
Procedure: as §1, §2, §3

[8] = test system: CYPSE (Flatsedge); assay: Postemergence weed control under flooded paddy conditions; format: in vivo, Cyperus serotinus; conditions: postemergence weeds, 3-4 weeks after treatment
Source text: as §3, §4

[9] = test system: CYPSE (Flatsedge); assay: Preemergence weed control under flooded paddy conditions; format: in vivo, Cyperus serotinus; conditions: rated 3-4 weeks after treatment
Procedure: as §3
(§5) Preemergence herbicidal activity under flooded paddy conditions is determined as follows: plant seeds or propagating organs are planted in the top 0.5 cm of silt loam soil in 32 oz. plastic containers with a diameter of 10.5 cm and no drainage holes. Water is added to these containers and maintained at 1.5 to 3 cm above the soil surface for the duration of the experiment. The test compounds are applied as aqueous/acetone mixtures 50/50 v/v pipetted directly into the flood water to give the equivalent of about 0.0313 to 0.500 kg/ha of active ingredient. The treated containers are placed on greenhouse benches and cared for in accordance with conventional greenhouse procedures. Three to four weeks after treatment, the test is terminated and each container is examined and herbicidal effect rated according to the rating system provided in Example 37. The compounds evaluated are reported by compound number given in Example 37.
(§6) Plant species employed in this example are reported by header abbreviation, common name and scientific name.

[10] = test system: IPOHE (Morningglory, Ivyleaf); assay: Postemergence herbicidal evaluation; format: in vivo, Ipomoea hederacea
Procedure: as §1, §2, §3

[11] = test system: CYPIR (Rice Flatsedge); assay: Preemergence weed control under flooded paddy conditions; format: in vivo, Cyperus iria; conditions: rated 3-4 weeks after treatment
Procedure: as §3, §5, §6

[12] = test system: CYPIR (Rice Flatsedge); assay: Postemergence weed control under flooded paddy conditions; format: in vivo, Cyperus iria; conditions: postemergence weeds, 3-4 weeks after treatment
Source text: as §3, §4

[13] = test system: ABUTH (Velvetleaf); assay: Postemergence herbicidal evaluation; format: in vivo, Abutilon theophrasti
Procedure: as §1, §2, §3

[14] = test system: ECHORC (Watergrass (Calif.)); assay: Postemergence weed control under flooded paddy conditions; format: in vivo, Echinochloa oryzoides; conditions: postemergence weeds, 3-4 weeks after treatment
Source text: as §3, §4

[15] = test system: SAGPY (Arrowhead (Pygmaea)); assay: Preemergence weed control under flooded paddy conditions; format: in vivo, Sagittaria pygmaea; conditions: rated 3-4 weeks after treatment
Procedure: as §3, §5, §6

[16] = test system: GLXMAW (Soybean, Williams); assay: Postemergence herbicidal evaluation; format: in vivo, Glycine max, (L.) Merr. cv Williams
Procedure: as §1, §2, §3

[17] = test system: MOOVA (Monochoria); assay: Preemergence weed control under flooded paddy conditions; format: in vivo, Monochoria vaginalis; conditions: rated 3-4 weeks after treatment
Procedure: as §3, §5, §6

[18] = test system: ECHORC (Watergrass (Calif.)); assay: as above; format: in vivo, Echinochloa oryzoides; conditions: rated 3-4 weeks after treatment
Procedure: as §3, §5, §6

[19] = test system: SAGPY (Arrowhead (Pygmaea)); assay: Postemergence weed control under flooded paddy conditions; format: in vivo, Sagittaria pygmaea; conditions: postemergence weeds, 3-4 weeks after treatment
Source text: as §3, §4

[20] = test system: ECHCG (Barnyardgrass); assay: Postemergence herbicidal evaluation; format: in vivo, Echinochloa crus-galli
Procedure: as §1, §2, §3

[21] = test system: ZEAMX (Corn, Field); assay: Postemergence herbicidal evaluation; format: in vivo, Zea mays
Procedure: as §1, §2, §3

[22] = test system: AMBEL (Ragweed, Common); assay: Postemergence herbicidal evaluation; format: in vivo, Ambrosia artemisifolia
Procedure: as §1, §2, §3

CCOC(=O)CN1C(=O)C(CC(N)=O)S/C1=N/c1cc(-n2c(=O)cc(C(F)(F)F)n(C)c2=O)c(F)cc1Cl (stereo not shown) [Compound 56, Ethyl 5-(carbamoylmethyl)-2-{{2-chloro-5-[3,6-dihydro-3-methyl-2,6-dioxo-4-(trifluoromethyl)-1(2H)-pyrimidinyl]-4-fluorophenyl}imino}-4-oxo-3-thiazolidineacetate]
1.5: Postemergence herbicidal rating ORYSAT ([4]; Rate 0.0158 kg/ha)
4.5: Postemergence herbicidal rating TRZAWR ([7]; Rate 0.0315 kg/ha)
7.5: Postemergence herbicidal rating GLXMAW ([16]; Rate 0.0315 kg/ha)
0.0: Herbicidal rating CYPSE ([8]; rate 0.0313 kg/ha) | Herbicidal rating CYPSE ([8]; rate 0.0625 kg/ha) | Herbicidal rating CYPSE ([8]; rate 0.1250 kg/ha) | Herbicidal rating CYPSE ([8]; rate 0.2500 kg/ha) | Herbicidal rating CYPSE ([9]; 0.0313 kg/ha) | Herbicidal rating CYPSE ([9]; 0.0625 kg/ha) | Herbicidal rating CYPSE ([9]; 0.1250 kg/ha) | Herbicidal rating CYPSE ([9]; 0.2500 kg/ha) | Herbicidal rating CYPIR ([11]; 0.0313 kg/ha) | Herbicidal rating CYPIR ([11]; 0.0625 kg/ha) | Herbicidal rating CYPIR ([11]; 0.1250 kg/ha) | Herbicidal rating CYPIR ([11]; 0.2500 kg/ha) | Herbicidal rating CYPIR ([12]; rate 0.0313 kg/ha) | Herbicidal rating CYPIR ([12]; rate 0.0625 kg/ha) | Herbicidal rating CYPIR ([12]; rate 0.1250 kg/ha) | Herbicidal rating CYPIR ([12]; rate 0.2500 kg/ha) | Herbicidal rating ECHORC ([14]; rate 0.0313 kg/ha) | Herbicidal rating ECHORC ([14]; rate 0.0625 kg/ha) | Herbicidal rating SAGPY ([15]; 0.0313 kg/ha) | Herbicidal rating SAGPY ([15]; 0.0625 kg/ha) | Herbicidal rating SAGPY ([15]; 0.1250 kg/ha) | Herbicidal rating SAGPY ([15]; 0.2500 kg/ha) | Herbicidal rating ECHORC ([18]; 0.0313 kg/ha) | Herbicidal rating ECHORC ([18]; 0.0625 kg/ha) | Herbicidal rating SAGPY ([19]; rate 0.0313 kg/ha) | Herbicidal rating SAGPY ([19]; rate 0.0625 kg/ha) | Herbicidal rating SAGPY ([19]; rate 0.1250 kg/ha) | Herbicidal rating SAGPY ([19]; rate 0.2500 kg/ha)
6.0: Postemergence herbicidal rating SETVI ([2]; Rate 0.0158 kg/ha) | Postemergence herbicidal rating SETVI ([2]; Rate 0.0315 kg/ha) | Herbicidal rating MOOVA ([5]; rate 0.0313 kg/ha) | Herbicidal rating MOOVA ([5]; rate 0.0625 kg/ha) | Postemergence herbicidal rating GALAP ([6]; Rate 0.0315 kg/ha) | Herbicidal rating MOOVA ([17]; 0.0313 kg/ha) | Herbicidal rating MOOVA ([17]; 0.0625 kg/ha)
9.0: Postemergence herbicidal rating CASOB ([1]; Rate 0.0630 kg/ha) | Postemergence herbicidal rating CHEAL ([3]; Rate 0.0158 kg/ha) | Postemergence herbicidal rating CHEAL ([3]; Rate 0.0315 kg/ha) | Postemergence herbicidal rating CHEAL ([3]; Rate 0.0630 kg/ha) | Herbicidal rating MOOVA ([5]; rate 0.1250 kg/ha) | Herbicidal rating MOOVA ([5]; rate 0.2500 kg/ha) | Postemergence herbicidal rating GALAP ([6]; Rate 0.0630 kg/ha) | Postemergence herbicidal rating IPOHE ([10]; Rate 0.0158 kg/ha) | Postemergence herbicidal rating IPOHE ([10]; Rate 0.0315 kg/ha) | Postemergence herbicidal rating IPOHE ([10]; Rate 0.0630 kg/ha) | Postemergence herbicidal rating ABUTH ([13]; Rate 0.0158 kg/ha) | Postemergence herbicidal rating ABUTH ([13]; Rate 0.0315 kg/ha) | Postemergence herbicidal rating ABUTH ([13]; Rate 0.0630 kg/ha) | Herbicidal rating MOOVA ([17]; 0.1250 kg/ha) | Herbicidal rating MOOVA ([17]; 0.2500 kg/ha) | Postemergence herbicidal rating AMBEL ([22]; Rate 0.0158 kg/ha) | Postemergence herbicidal rating AMBEL ([22]; Rate 0.0315 kg/ha) | Postemergence herbicidal rating AMBEL ([22]; Rate 0.0630 kg/ha)
7.0: Postemergence herbicidal rating SETVI ([2]; Rate 0.0630 kg/ha) | Postemergence herbicidal rating GLXMAW ([16]; Rate 0.0158 kg/ha)
5.5: Postemergence herbicidal rating ZEAMX ([21]; Rate 0.0315 kg/ha)
2.5: Postemergence herbicidal rating ORYSAT ([4]; Rate 0.0630 kg/ha)
5.0: Postemergence herbicidal rating TRZAWR ([7]; Rate 0.0630 kg/ha) | Herbicidal rating ECHORC ([14]; rate 0.2500 kg/ha) | Herbicidal rating ECHORC ([18]; 0.2500 kg/ha) | Postemergence herbicidal rating ZEAMX ([21]; Rate 0.0158 kg/ha)
3.0: Postemergence herbicidal rating GALAP ([6]; Rate 0.0158 kg/ha) | Herbicidal rating ECHORC ([14]; rate 0.1250 kg/ha) | Herbicidal rating ECHORC ([18]; 0.1250 kg/ha) | Postemergence herbicidal rating ECHCG ([20]; Rate 0.0630 kg/ha)
8.0: Postemergence herbicidal rating GLXMAW ([16]; Rate 0.0630 kg/ha)
6.5: Postemergence herbicidal rating ZEAMX ([21]; Rate 0.0630 kg/ha)
4.0: Postemergence herbicidal rating CASOB ([1]; Rate 0.0158 kg/ha) | Postemergence herbicidal rating CASOB ([1]; Rate 0.0315 kg/ha) | Postemergence herbicidal rating TRZAWR ([7]; Rate 0.0158 kg/ha)
2.0: Postemergence herbicidal rating ORYSAT ([4]; Rate 0.0315 kg/ha) | Postemergence herbicidal rating ECHCG ([20]; Rate 0.0158 kg/ha) | Postemergence herbicidal rating ECHCG ([20]; Rate 0.0315 kg/ha)
